From patent publication US7531557B2, “Diaryl ethers as opioid receptor antagonists” (Eli Lilly and Company, priority 2002, dated 2009) come the findings set out here.

Where a name gives a salt, the structure may show the parent alone. Some results are limits rather than exact numbers.

In series [1] the test system is mu, delta and kappa receptors in rat striatum/nucleus accumbens. The experiment in a line: Ex-vivo receptor binding of 3H-diprenorphine in rat brain after oral dosing. The following applies: 7 mg/kg p.o., 6 hours after administration, striatum/nucleus accumbens homogenate, versus vehicle.
The target in series [2] is delta opioid receptor (DOR) (Homo sapiens, UniProt P41143). The experiment in a line: SPA-based GTP-γ-S binding assay, antagonist mode, delta. The class given is biochemical. The following applies: antagonist assay against DPDPE 30 nM; Kb by Cheng-Prusoff equation; read-out: In Vitro Antagonism GTP-γ-S Kb Delta. The procedure: (§1) An SPA—based GTP-γ-S assay format was developed based on previous opioid (Emmerson et al., J. Pharm Exp Ther 278, 1121, 1996; Horng et al., Society for Neuroscience Abstracts, 434.6, 2000) and muscarinic (DeLapp et al., JPET 289, 946, 1999) assay formats. Membranes were re-suspended in 20 mM HEPES, 100 mM NaCl, 5 mM MgCl2, 1 mM DTT, and 1 mM EDTA. Fifty (50) […] of GTP-γ-[35S], compound, membrane suspension (20 microgram/well), and wheat germ agglutinin coated SPA beads (1 mg/well) were added to clear bottom 96 well assay plates. GDP ([…]) was added to the membrane solution prior to addition to the assay plates. Plates were sealed and incubated for four hours at room temperature then placed in a refrigerator overnight to allow the beads to settle. Signal stability at 4° C. was determined to be >60 hours. Plates were warmed to room temperature and counted in a Wallac Microbeta scintillation counter. For antagonist assays, specific agonists were added at the following concentrations: (MOR) DAMGO 1 micromolar, (DOR) DPDPE 30 nM, (KOR) U69593 300 nM. Kb's were determined by Cheng-Prusoff equation (see Cheng and Prusoff, Biochem. Pharmacol. 22, 3099, 1973).
delta opioid receptor (DOR), sequence (P41143 whole entry): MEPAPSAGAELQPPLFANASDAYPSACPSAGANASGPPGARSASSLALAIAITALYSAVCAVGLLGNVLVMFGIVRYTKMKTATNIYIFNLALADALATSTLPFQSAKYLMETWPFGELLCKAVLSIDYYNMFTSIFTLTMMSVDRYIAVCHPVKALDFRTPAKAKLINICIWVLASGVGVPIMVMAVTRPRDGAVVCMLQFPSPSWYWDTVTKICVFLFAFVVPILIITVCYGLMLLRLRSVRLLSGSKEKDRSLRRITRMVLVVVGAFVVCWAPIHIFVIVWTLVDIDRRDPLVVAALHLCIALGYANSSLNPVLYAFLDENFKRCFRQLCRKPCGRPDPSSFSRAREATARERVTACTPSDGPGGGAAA

Series [3] addresses kappa opioid receptor (KOR) (Homo sapiens, UniProt P41145). The experiment in a line: SPA-based GTP-γ-S binding assay, antagonist mode, kappa. To be noted: antagonist assay against U69593 300 nM; Kb by Cheng-Prusoff equation; read-out: In Vitro Antagonism GTP-γ-S Kb Kappa. Type of series: biochemical. The method, then:
as §1
On the technique in general: GTPγS resists hydrolysis and so accumulates on activated G proteins.

In the next series the target is mu opioid receptor (MOR) (Homo sapiens, UniProt P35372). The experiment in a line: SPA-based GTP-γ-S binding assay, antagonist mode, mu. The class given is biochemical. The following applies: antagonist assay against DAMGO 1 micromolar; Kb by Cheng-Prusoff equation; read-out: In Vitro Antagonism GTP-γ-S Kb Mu. The method, then: as §1
mu opioid receptor (MOR), sequence (P35372 whole entry): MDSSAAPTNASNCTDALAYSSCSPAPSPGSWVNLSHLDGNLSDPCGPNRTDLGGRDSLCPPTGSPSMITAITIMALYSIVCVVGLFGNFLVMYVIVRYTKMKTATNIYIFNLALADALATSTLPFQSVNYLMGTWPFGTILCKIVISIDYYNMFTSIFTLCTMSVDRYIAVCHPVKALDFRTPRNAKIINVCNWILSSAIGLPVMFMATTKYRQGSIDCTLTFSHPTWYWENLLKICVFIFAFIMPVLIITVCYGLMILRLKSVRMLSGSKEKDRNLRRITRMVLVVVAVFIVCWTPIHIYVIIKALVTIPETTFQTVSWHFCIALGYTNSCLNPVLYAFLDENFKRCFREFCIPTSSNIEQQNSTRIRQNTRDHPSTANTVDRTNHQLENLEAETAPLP
In a further series the test system is Diet Induced Obese Rat. The experiment in a line: Indirect calorimetry assay (food consumption, energy balance). Type of series: in vivo. The following applies: for minimal effective dose: Rattus norvegicus, po, lowest dose with food consumption over 24 hours significantly different from vehicle, read-out: Inhibition of Feeding Diet Induced Obese Rat Minimum Effective Dose (MED); for Energy Balance Diet Induced Obese Rat: test dose 3 mg/kg, p.o., energy balance = caloric intake minus utilization. The procedure:
Indirect Calorimetry Assay
Twenty-four-hour energy expenditure (EE) and respiratory quotient (RQ) were measured by indirect calorimetry using an open circuit calorimetry system (Oxymax, Columbus Instruments Int. Corp., USA). RQ is the ratio of the volume of CO2 produced (VCO2) to the volume of O2 consumed (VO2). EE was calculated as the product of calorific value of oxygen (CV) and VO2 per kilogram of body weight, where CV=3.815+1.232 (RQ). Total calories expended were calculated to determine daily fuel utilization. To calculate the proportion of protein, fat and carbohydrate that is used during that 24-hour period, we used Flatt's proposal (see, Flatt J P 1991 Assessment of daily and cumulative carbohydrate and fat balances in mice. J Nutr Biochem 2:193-202.) and formulae as well as other derived constants (see Elia M, Livesey G 1992 Energy expenditure and fuel selection in biological systems: the theory and practice of calculations based on indirect calorimetry and tracer methods. World Rev Nutr Diet 70:68-131.). Food consumption over the 24-hour period was also measured. […] Results obtained for a sample of compounds of the invention with the indirect calorimetry assay are shown below in Table 4.

kappa opioid receptor (KOR), sequence (P41145 whole entry): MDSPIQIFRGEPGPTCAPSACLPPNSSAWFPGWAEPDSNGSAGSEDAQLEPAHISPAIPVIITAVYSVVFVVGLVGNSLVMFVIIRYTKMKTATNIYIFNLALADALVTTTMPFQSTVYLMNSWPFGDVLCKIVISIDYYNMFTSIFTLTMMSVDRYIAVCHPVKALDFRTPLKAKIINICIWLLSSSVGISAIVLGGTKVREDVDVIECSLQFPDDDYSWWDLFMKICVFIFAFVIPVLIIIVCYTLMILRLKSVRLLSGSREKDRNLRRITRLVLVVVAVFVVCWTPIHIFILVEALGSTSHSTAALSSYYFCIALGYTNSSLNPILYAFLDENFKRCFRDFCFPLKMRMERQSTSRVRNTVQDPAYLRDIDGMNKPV

For `COc1cc(CNCCC(C)(C)C)ccc1Oc1ccc(C(N)=O)cn1.CS(=O)(=O)O` [Example 446, 6-{4-[(3,3-Dimethylbutylamino)methyl]-2-methoxyphenoxy}nicotinamide methanesulfonate], in series [1], the “Ex Vivo Binding [3H]-Diprenorphine % Inhibition of at 6 hours 7 mg/kg of test compound” value was found to be 55%.

On to `NC(=O)c1ccc(Oc2ccc(CNCCc3cccc(F)c3)cc2)nc1` [Example 256, 6-(4-{[2-(3-Fluoro-phenyl)-ethylamino]-methyl}-phenoxy)-nicotinamide], for which the Kb in series [2] was found to be 0.677 nM; in series [3], 0.894 nM; at mu opioid receptor (MOR) it was 0.072 nM. Also, the “Ex Vivo Binding [3H]-Diprenorphine % Inhibition of at 6 hours 7 mg/kg of test compound” value in series [1] came to 40%.

As for `Cc1cc(CNCCC(C)(C)C)ccc1Oc1ccc(C(N)=O)cn1` [Example 238, 6-{4-[(3,3-Dimethyl-butylamino)-methyl]-2-methyl-phenoxy}-nicotinamide], the “Ex Vivo Binding [3H]-Diprenorphine % Inhibition of at 6 hours 7 mg/kg of test compound” value in series [1] was found to be 59%.

With `CCCCCNCc1ccc(Oc2ccc(C(N)=O)cn2)c(OC)c1` [Example 420, 6-(2-Methoxy-4-pentylaminomethylphenoxy)nicotinamide], the “Ex Vivo Binding [3H]-Diprenorphine % Inhibition of at 6 hours 7 mg/kg of test compound” value in series [1] is 75%.

For `Cc1cc(CNCCC(C)C)ccc1Oc1ccc(C(N)=O)cc1F` [Example 246, 3-Fluoro-4-{2-methyl-4-[(3-methyl-butylamino)-methyl]-phenoxy}-benzamide], the “Ex Vivo Binding [3H]-Diprenorphine % Inhibition of at 6 hours 7 mg/kg of test compound” value in series [1] amounted to 58%.

As to `Cc1cc(CNCCC(C)C)ccc1Oc1ccc(C(N)=O)cn1` [Example 227, 6-[2-Methyl-4-(3-methyl-butylamino-methyl)-phenoxy]nicotinamide], in the series on Diet Induced Obese Rat, the minimal effective dose was 0.3 mg/kg and the “Energy Balance Diet Induced Obese Rat” value was -68 kcal/kg/day. For the same compound, the “Ex Vivo Binding [3H]-Diprenorphine % Inhibition of at 6 hours 7 mg/kg of test compound” value in series [1] is recorded as 55%.

For the compound `CCCCNCc1ccc(Oc2ccc(C(N)=O)cn2)c(C)c1` [Example 240, 6-(4-Butylaminomethyl-2-methyl-phenoxy)-nicotinamide], the “Ex Vivo Binding [3H]-Diprenorphine % Inhibition of at 6 hours 7 mg/kg of test compound” value in series [1] turned out to be 38%.

Regarding `NC(=O)c1ccc(Oc2ccc(CNCCc3cccs3)cc2)nc1` [Example 253, 6-{4-[(2-Thiophen-2-yl-ethylamino)-methyl]-phenoxy}-nicotinamide], the figures for the Kb (in series [2]; in series [3]; at mu opioid receptor (MOR)) were 0.708 nM, 0.355 nM and 0.068 nM, respectively. For the same compound, the minimal effective dose with Diet Induced Obese Rat was not above 3 mg/kg. Further, in the series with Diet Induced Obese Rat, the “Energy Balance Diet Induced Obese Rat” value is -19 kcal/kg/day. In addition, in series [1], the “Ex Vivo Binding [3H]-Diprenorphine % Inhibition of at 6 hours 7 mg/kg of test compound” value was more than 40%.

For `CC(C)(C)CCNCc1ccc(Oc2ccc(C(N)=O)cn2)cc1` [Example 263, 6-{4-[(3,3-Dimethyl-butylamino)-methyl]-phenoxy}-nicotinamide], in the series with Diet Induced Obese Rat, the minimal effective dose was not above 3 mg/kg and the “Energy Balance Diet Induced Obese Rat” value was -56 kcal/kg/day. For the same compound, the “Ex Vivo Binding [3H]-Diprenorphine % Inhibition of at 6 hours 7 mg/kg of test compound” value in series [1] worked out at 62%.

Regarding `NC(=O)c1ccc(Oc2ccc(CCNCc3cccc(Cl)c3)cc2Cl)nc1` [Example 479, 6-{2-Chloro-4-[2-(3-chloro-benzylamino)-ethyl]-phenoxy}-nicotinamide], the Kb came out at 30.1 nM in series [2], 6.86 nM in series [3] and 0.503 nM at mu opioid receptor (MOR).

Turning to `NC(=O)c1ccc(Oc2ccc(CCNCc3cccc(F)c3)cc2Cl)nc1` [Example 478, 6-{2-Chloro-4-[2-(3-fluoro-benzylamino)-ethyl]-phenoxy}-nicotinamide], the Kb in series [2] is 5.78 nM; in series [3], 4.5 nM; on mu opioid receptor (MOR), 0.41 nM.

On to `NC(=O)c1ccc(Oc2ccc(CNCCC3CCCCC3)cc2)nc1` [Example 272, 6-{4-[(2-Cyclohexyl-ethylamino)-methyl]-phenoxy}-nicotinamide], for which the “Ex Vivo Binding [3H]-Diprenorphine % Inhibition of at 6 hours 7 mg/kg of test compound” value in series [1] turned out to be 79%.

For the compound `CCCCCNCc1ccc(Oc2ccc(C(N)=O)nc2)c(F)c1` [Example 405, 5-(2-Fluoro-4-pentylaminomethylphenoxy)pyridine-2-carboxamide], in series [1], the “Ex Vivo Binding [3H]-Diprenorphine % Inhibition of at 6 hours 7 mg/kg of test compound” value was 55%.

`NC(=O)c1ccc(Oc2ccc(CNCCc3ccc(F)cc3)cc2)cc1` [Example 294, 4-(4-{[2-(4-Fluoro-phenyl)-ethylamino]-methyl}-phenoxy)-benzamide]: the “Ex Vivo Binding [3H]-Diprenorphine % Inhibition of at 6 hours 7 mg/kg of test compound” value in series [1] was 50%.

`NC(=O)c1ccc(Oc2ccc(CNCCC3CCCC3)cc2)nc1` [Example 309, 6-{4-[(2-Cyclopentyl-ethylamino)-methyl]-phenoxy}-nicotinamide]: in the series on Diet Induced Obese Rat, the minimal effective dose was not above 3 mg/kg and the “Energy Balance Diet Induced Obese Rat” value is -39 kcal/kg/day. In series [1], the “Ex Vivo Binding [3H]-Diprenorphine % Inhibition of at 6 hours 7 mg/kg of test compound” value is on record as more than 60%.

`CC(C)CCN(Cc1ccc(Oc2ccc(C(N)=O)cn2)c(F)c1)CC1CCCCC1` [Example 671, 6-[4-((3-Methyl-butyl), cyclohexylmethylaminomethyl)-2-fluorophenoxy]nicotinonamide] registered a melting point of 110 to 111 °C.

With `CC(C)CCNCc1ccc(Oc2ccc(C(N)=O)cn2)cc1` [Example 271, 6-{4-[(3-Methyl-butylamino)-methyl]-phenoxy}-nicotinamide], the values for the Kb (in series [2]; in series [3]; on mu opioid receptor (MOR)) were 4.4 nM, 0.4 nM and 0.2 nM, respectively. Besides, the minimal effective dose with Diet Induced Obese Rat was 0.3 mg/kg. The “Energy Balance Diet Induced Obese Rat” value with Diet Induced Obese Rat was -35 kcal/kg/day. Moreover, the “Ex Vivo Binding [3H]-Diprenorphine % Inhibition of at 6 hours 7 mg/kg of test compound” value in series [1] is recorded as more than 40%.

For `COc1cc(CNCCc2ccccc2F)ccc1Oc1ccc(C(N)=O)cn1` [Example 431, 6-(4-{[2-(2-fluorophenyl)ethylamino]methyl}-2-methoxyphenoxy)nicotinamide], the “Ex Vivo Binding [3H]-Diprenorphine % Inhibition of at 6 hours 7 mg/kg of test compound” value in series [1] stood at 54%.

Consider `CC(C)(C)CCNCc1ccc(Oc2ccc(C(N)=O)cn2)c(Cl)c1` [Example 481, 6-{2-Chloro-4-[(3,3-dimethylbutylamino)-methyl]-phenoxy}-nicotinamide], for which, in series [1], the “Ex Vivo Binding [3H]-Diprenorphine % Inhibition of at 6 hours 7 mg/kg of test compound” value turned out to be 83%.

Turning to `CC(C)CCNCc1ccc(Oc2ccc(C(N)=O)cn2)c(F)c1` [Example 228, 6-[2-Fluoro-4-(3-methyl-butylamino-methyl)-phenoxy]nicotinamide], in the series on Diet Induced Obese Rat, the minimal effective dose was found to be 0.3 mg/kg and the “Energy Balance Diet Induced Obese Rat” value is -81 kcal/kg/day. In series [1], the “Ex Vivo Binding [3H]-Diprenorphine % Inhibition of at 6 hours 7 mg/kg of test compound” value was more than 65%.

Consider `NC(=O)c1ccc(Oc2ccc(CCNCc3ccccc3)cc2Cl)nc1` [Example 475, 6-[4-(2-Benzylamino-ethyl)-2-chloro-phenoxy]-nicotinamide], for which the results for the Kb (in series [2]; in series [3]; at mu opioid receptor (MOR)) were 17.5 nM, 7.86 nM and 0.843 nM, respectively.

Turning to `NC(=O)c1ccc(Oc2ccc3c(c2)CCCN(CCc2ccccc2)C3)nc1` [Example 447, 6-(2-Phenethyl-2,3,4,5-tetrahydro-1H-benzo[c]azepin-7-yloxy)nicotinamide], in series [1], the “Ex Vivo Binding [3H]-Diprenorphine % Inhibition of at 6 hours 7 mg/kg of test compound” value is on record as 62%.

`CC(C)CCNCc1ccc(Oc2ccc(C(N)=O)cn2)c(Cl)c1` [Example 229, 6-[2-Chloro-4-(3-methyl-butylamino-methyl)-phenoxy]nicotinamide]: the “Ex Vivo Binding [3H]-Diprenorphine % Inhibition of at 6 hours 7 mg/kg of test compound” value in series [1] is on record as 77%.

Consider `Cc1ccccc1CNCCc1ccc(Oc2ccc(C(N)=O)cn2)c(Cl)c1` [Example 476, 6-{2-Chloro-4-[2-(2-methyl-benzylamino)-ethyl]-phenoxy}-nicotinamide], for which the values for the Kb (in series [2]; in series [3]; on mu opioid receptor (MOR)) were 8.9 nM, 3.38 nM and 0.281 nM, respectively.

Take `O=C1CC[C@@]2(O)[C@H]3Cc4ccc(O)c5c4[C@@]2(CCN3CC2CC2)[C@H]1O5` [Naltrexone ®, Naltrexone HCl, reference compound]: in the series with Diet Induced Obese Rat, the minimal effective dose was more than 10 mg/kg and the “Energy Balance Diet Induced Obese Rat” value is on record as “Not significant”. Besides, in series [1], the “Ex Vivo Binding [3H]-Diprenorphine % Inhibition of at 6 hours 7 mg/kg of test compound” value was less than 40%.

As usually defined, the melting point is the temperature of the solid-liquid transition.
